Patent US20090291950A1, “BICYCLIC HETEROARYL INHIBITORS OF PDE4” (KALYPSYS, INC., priority 2006, published 2009)

Legend:
[1] = test system: dry eye (corneal staining, tear breakup time); assay: Lacrimal gland inflammation-induced dry eye in rabbits; assay type: in vivo; details: topical ocular BID, rabbit ConA dry eye
Text: A more detailed description of the assay used herein may be found in Naglehout, T J et al. 2005, “Preservation of Tear Film Integrity and Inhibition of Corneal Injury by Dexamethasone in a Rabbit Model of Lacrimal Gland Inflammation-Induced Dry Eye,”J. Ocular Pharm. Ther., 21:2. 139-148, the disclosure of which is hereby incorporated by reference as if written herein in its entirety. Rabbits (n=4/group) were randomized into treatment groups and dosed topically BID with maxidex vehicle or test drug beginning one day prior to initiation of dry eye. Each rabbit received bilateral lacrimal gland injections of saline or ConA (300 μg/30 μl) and topical ocular dosing was continued BID throughout the study. Desiccation was initiated 1-2 hours following lacrimal gland injection by placing conscious rabbits in the environmental chamber (10-15% humidity/72° F.). Following 72 consecutive hours of exposure to this dry environment, the animals were anesthetized and sutures were placed in each upper and lower eyelid and lifted to form a corneal/conjunctival cup. Methylene blue dye (1 mL, 1% in dH2O) was added to the cup for three minutes and the excess removed by washing with 200 mL BSS®. The contralateral eye was then stained using the same procedure. Rabbits were euthanized immediately following the staining procedure and the eyes were excised. The corneas were isolated with a trephine and the 9.5-mm punch of the cornea was placed in 2 mL acetone/saturated sodium sulfate (7:3, vol./vol.). Absorbance of the extracted dye was determined at 660 nm. TBUT was quantified in a separate group of treated animals. TBUT was determined by instilling 5 μL sodium fluorescein into the cul de sac and manually blinking the lids to distribute the fluorescein within the tear film. Under slit lamp observation, the eye was held open and the time whereby one or more black spots or streaks appeared in the precorneal tear film was recorded. The rabbits were euthanized 3 days following ConA inj ection.

[2] = molecular target: T1, PDE4B (Homo sapiens, UniProt Q07343); assay: coupled PDE/AK bioluminescent assay; assay type: biochemical; details: catalytic domain of PDE4B
T1 construct: hexahistidine (His6) (N); made in house
T1 sequence (Q07343 330-659 limits assumed, species assumed): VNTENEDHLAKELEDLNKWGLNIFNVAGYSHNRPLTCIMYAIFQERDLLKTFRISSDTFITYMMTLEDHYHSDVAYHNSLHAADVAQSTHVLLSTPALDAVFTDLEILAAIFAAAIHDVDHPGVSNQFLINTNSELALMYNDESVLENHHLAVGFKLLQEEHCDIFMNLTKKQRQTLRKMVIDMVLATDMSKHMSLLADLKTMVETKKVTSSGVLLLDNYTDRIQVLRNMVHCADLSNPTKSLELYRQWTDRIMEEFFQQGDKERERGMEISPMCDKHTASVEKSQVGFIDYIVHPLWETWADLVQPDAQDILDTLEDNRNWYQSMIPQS
Text: Phosphodiesterases regulate the activity of the second messenger cyclic adenosine monophosphate (cAMP) by hydrolyzing cAMP to adenosine monophosphate (AMP). We developed a novel coupled PDE/AK bioluminescent high-throughput assay to measure the activity of phosphodiesterases. In the PDE/AK assay, the AMP produced from the hydrolysis of cAMP by phosphodiesterase is converted to adenosine diphosphate (ADP) by the phosphotransferase activity of adenylate kinase (also known as ADK or myokinase). Adenylate kinase will catalyze the conversion of 1 mole of AMP and 1 mole of ATP into 2 moles of ADP. Thus the conversion of AMP to ADP will result in the subsequent loss of ATP. The decrease in ATP concentration can be monitored as light output using luciferase in a reaction that requires ATP to produce light. The PDE/AK assay uses luciferase, which catalyzes the production of light from ATP present in the reaction mix. The amount of emitted light is inversely proportional to the level of AMP present in the reaction. Test compounds are incubated with the phosphodiesterases and phosphodiesterase inhibitors will decrease the rate of cAMP hydrolysis and decrease the subsequent production of AMP. Thus phosphodiesterase inhibitors will decrease the conversion of ATP to ADP and result in the greatest emission of light.
Compounds may be screened for functional potency in in vitro biochemical assays for their ability to inhibit the activity of phosphodiesterase (PDE) enzymes. A novel coupled PDE/AK assay was utilized to measure the inhibitory activity of compounds on PDE isoforms. The catalytic domain of PDE4B was fused to an amino-terminus hex-histidine affinity tag and purified. PDE4B enzyme was incubated with compounds for 10 minutes. Cyclic AMP substrate, ATP and adenylate kinase were then added to the PDE enzyme mix and incubated for 45 minutes at room temperature. A commercial ATP detection assay, Perkin Elmer's easyLite ATP detection reagent, was then added to measure the relative amount of ATP present in the reaction. After 10 minute incubation, the luminescent signal was quantitated with either the Perkin Elmer Viewlux or Molecular Devices Acquest or Analyst. Roflumilast and Rolipram are the positive controls used in the assay.
The PDE/AK assay can be performed with any cAMP dependent phosphodiesterase, and can be performed in 96-, 384-, or 1536-well plates. […] Specifically, the use of radioactive substrates in a phosphodiesterase activity assay requires special protocols for handling and waste disposal, and reduced throughput. Modified substrates add the additional complexity of potentially altering the binding to the phosphodiesterase catalytic site. Fluorescently modified substrates may cause fluorescence artifacts that may interfere in the interpretation of assay results. The use of beads that selectively bind to either the cAMP or AMP may cause an additional complexity in reagent handling. The use of antibodies that selectively bind to either cAMP or AMP can be extremely costly with a relatively small signal to noise ratio. Therefore, the novel PDE/AK assay represents a simple, cost-effective alternative to known methods.

- IC50 [2]: ≤ 1000 nM
Structure (SMILES): COc1ccc2c(Nc3c(Cl)cncc3Cl)cc(OCCN(C)C)nc2c1OCC1CC1 [Example 30, 8-(Cyclopropylmethoxy)-N-(3,5-dichloropyridin-4-yl)-2-(2-(dimethylamino)ethoxy)-7-methoxyquinolin-4-amine]
- Activity at Percent Concentration Tested ([1]; 1 × 10^−2 percent concentration): Inactive
- Activity at Percent Concentration Tested ([1]; 1 × 10^−4 percent concentration): Inactive
- Activity at Percent Concentration Tested ([1]; 1 × 10^−6 percent concentration): Inactive
